Like-named read-outs stand apart in the source and are kept apart here.
Tests used:
[1] = target: T1, hormone-sensitive lipase derived from a preparation of 3T3-cell lysate (Mus musculus, UniProt P54310); experiment: Inhibition of hormone-sensitive lipase from 3T3-L1 cell lysate on glycerol-stabilized triolein; assay type: biochemical; details: test compound 100 μM
T1 construct: hormone-sensitive lipase derived from a preparation of 3T3-cell lysate; endogenous in cells; host or cells: 3T3-L1 cell lysate
T1 sequence (P54310 1-759): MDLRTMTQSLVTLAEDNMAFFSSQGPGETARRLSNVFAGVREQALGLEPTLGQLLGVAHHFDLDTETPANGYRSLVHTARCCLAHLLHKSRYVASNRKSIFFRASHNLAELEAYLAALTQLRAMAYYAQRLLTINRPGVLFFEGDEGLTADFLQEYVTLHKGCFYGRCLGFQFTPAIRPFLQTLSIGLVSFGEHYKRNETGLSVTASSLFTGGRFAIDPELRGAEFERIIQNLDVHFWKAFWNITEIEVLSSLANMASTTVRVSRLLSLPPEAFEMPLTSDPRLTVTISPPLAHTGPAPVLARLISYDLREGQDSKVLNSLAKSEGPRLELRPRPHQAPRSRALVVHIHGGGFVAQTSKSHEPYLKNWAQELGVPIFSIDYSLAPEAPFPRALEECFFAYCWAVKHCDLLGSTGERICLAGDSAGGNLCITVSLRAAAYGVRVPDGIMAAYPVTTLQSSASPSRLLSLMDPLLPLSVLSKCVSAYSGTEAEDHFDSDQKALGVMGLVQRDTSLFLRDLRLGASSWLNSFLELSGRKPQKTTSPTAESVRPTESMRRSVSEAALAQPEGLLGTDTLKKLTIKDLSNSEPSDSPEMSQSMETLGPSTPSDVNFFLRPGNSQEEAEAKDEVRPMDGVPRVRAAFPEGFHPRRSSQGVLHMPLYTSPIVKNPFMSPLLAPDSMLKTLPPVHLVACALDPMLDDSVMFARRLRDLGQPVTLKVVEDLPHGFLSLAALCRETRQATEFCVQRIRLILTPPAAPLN
Protocol: (§1) Recombinant hormone-sensitive lipase protein isolated from a bacterial expression vector was pre-incubated with a compound of the invention (e.g., 100 μM) prior to the addition of substrate, emulsified triolein phosphatidylcholine/phosphatidylinositol (PC/PI), to initiate the reaction. At various time points, aliquots of the reaction were taken, and the level of glycerol used as an index of enzyme activity. Pharmacological specificity is determined by incubating test compound with other mammalian and non-mammalian lipase enzyme systems to assess inhibition of activity. The assay was conducted using triolein concentrations from 42 μM to 835 μM.
(§2) In a similar manner to that described in Example 4 above, 2α-benzoyloxy-4,5,7,8,11αH-eudesman-8,12-olide at 100 μM was evaluated for ability to activity of recombinant hormone-sensitive lipase and hormone-sensitive lipase derived from a preparation of 3T3-cell lysate on glycerol-stabilized triolein.

[2] = target: T2, recombinant hormone-sensitive lipase (Homo sapiens, UniProt Q05469); experiment: Inhibition of recombinant (purified) hormone-sensitive lipase on glycerol-stabilized triolein; assay type: biochemical; details: test compound 100 μM, read-out: % inhibition Purified HSL
T2 construct: made in house
T2 sequence (Q05469 1-1076): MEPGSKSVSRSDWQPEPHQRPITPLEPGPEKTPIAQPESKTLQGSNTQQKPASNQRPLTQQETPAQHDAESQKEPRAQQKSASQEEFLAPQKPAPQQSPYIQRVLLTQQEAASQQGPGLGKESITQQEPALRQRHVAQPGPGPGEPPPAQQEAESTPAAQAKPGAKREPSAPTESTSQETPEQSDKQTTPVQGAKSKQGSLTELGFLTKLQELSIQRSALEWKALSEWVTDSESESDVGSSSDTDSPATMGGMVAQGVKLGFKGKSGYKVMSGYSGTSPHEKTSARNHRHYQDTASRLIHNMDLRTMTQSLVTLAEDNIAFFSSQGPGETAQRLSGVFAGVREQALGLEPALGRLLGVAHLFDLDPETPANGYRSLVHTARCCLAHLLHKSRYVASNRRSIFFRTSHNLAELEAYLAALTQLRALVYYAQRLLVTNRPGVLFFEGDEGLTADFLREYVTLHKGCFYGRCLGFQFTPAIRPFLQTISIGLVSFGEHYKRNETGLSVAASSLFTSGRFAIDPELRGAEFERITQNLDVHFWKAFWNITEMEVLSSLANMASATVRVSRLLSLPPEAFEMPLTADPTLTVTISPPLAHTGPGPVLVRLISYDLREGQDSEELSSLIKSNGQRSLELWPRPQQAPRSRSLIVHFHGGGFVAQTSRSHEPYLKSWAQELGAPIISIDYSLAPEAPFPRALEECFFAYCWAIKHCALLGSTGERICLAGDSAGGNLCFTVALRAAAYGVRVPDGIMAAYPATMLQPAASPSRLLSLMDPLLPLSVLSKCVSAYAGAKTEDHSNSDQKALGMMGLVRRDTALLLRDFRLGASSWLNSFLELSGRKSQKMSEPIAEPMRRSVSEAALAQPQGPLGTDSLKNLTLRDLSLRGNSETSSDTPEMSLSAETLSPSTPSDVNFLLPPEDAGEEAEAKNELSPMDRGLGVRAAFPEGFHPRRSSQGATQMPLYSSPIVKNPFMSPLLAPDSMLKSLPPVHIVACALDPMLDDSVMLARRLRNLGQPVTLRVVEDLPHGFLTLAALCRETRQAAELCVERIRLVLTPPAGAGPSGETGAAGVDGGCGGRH
Protocol: as §1, with “The assay was conducted using triolein concentrations from 42 μM to 835 μM.” left out
as §2

- melting point: 181 to 183 °C
- inhibition at 100 µM ([1]; triolein 30 μM): 63%
- inhibition at 100 µM ([1]; triolein 67 μM): 56%
- inhibition at 100 µM ([1]; triolein 100 μM): 51%
- inhibition at 100 µM ([1]; triolein 201 μM): 41%
- inhibition at 100 µM ([1]; triolein 400 μM): 38%
- inhibition at 100 µM ([1]; triolein 601 μM): 30%
- inhibition at 100 µM ([1]; triolein 800 μM): 18%
- inhibition at 100 µM ([1]; triolein 1000 μM): 15%
- inhibition at 100 µM ([2]; triolein 30 μM): 77%
- inhibition at 100 µM ([2]; triolein 67 μM): 78%
- inhibition at 100 µM ([2]; triolein 100 μM): 82%
- inhibition at 100 µM ([2]; triolein 201 μM): 64%
- inhibition at 100 µM ([2]; triolein 400 μM): 50%
- inhibition at 100 µM ([2]; triolein 601 μM): 40%
- inhibition at 100 µM ([2]; triolein 800 μM): 18%
- inhibition at 100 µM ([2]; triolein 1000 μM): 27%
Compound: CC1C[C@H](OC(=O)c2ccccc2)C[C@]2(C)C[C@H]3OC(=O)[C@@H](C)[C@H]3CC12 (stereo partly drawn) [2α-benzoyloxy-4,5,7,8,11αH-eudesman-8,12-olide]

Reference: patent US20020151581A1, “Glucose and lipid lowering compounds” (priority 1998, published 2002)
